Experimental data from ChEMBL document CHEMBL1201862, “PubChem BioAssay data set” (2004).
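Five concentrations, 48 hours, 96-well plates. Here, GI50 denotes the concentration required for 50% inhibition of growth.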 Activity calls are given as the source filed them. No stated cut-off is given here; in the data, active = GI50 up to about 1.1 µM and inactive = higher. Where a SMILES comes first, the peptide text is derived from it.

Experiments:
Assay in all cases: NCI anticancer screen, dose series, 48 h
SW-620 = test system: SW-620
NCI-H460 = test system: NCI-H460
MCF7 = test system: MCF7
786-0 = test system: 786-0
HOP-92 = test system: HOP-92
OVCAR-8 = test system: OVCAR-8
SNB-75 = test system: SNB-75
Hs-578T = test system: Hs-578T
OVCAR-4 = test system: OVCAR-4
SK-MEL-28 = test system: SK-MEL-28
BT-549 = test system: BT-549
UACC-62 = test system: UACC-62
TK-10 = test system: TK-10
COLO 205 = test system: COLO 205
CAKI-1 = test system: CAKI-1
SF-295 = test system: SF-295
IGROV-1 = test system: IGROV-1
NCI-H23 = test system: NCI-H23
SK-MEL-5 = test system: SK-MEL-5
HL-60 = test system: HL-60

SMILES	GI50 (SW-620)	GI50 (NCI-H460)	GI50 (MCF7)	GI50 (786-0)	GI50 (HOP-92)	GI50 (OVCAR-8)	GI50 (SNB-75)	GI50 (Hs-578T)	GI50 (OVCAR-4)	GI50 (SK-MEL-28)	GI50 (BT-549)	GI50 (UACC-62)	GI50 (TK-10)	GI50 (COLO 205)	GI50 (CAKI-1)	GI50 (SF-295)	GI50 (IGROV-1)	GI50 (NCI-H23)	GI50 (SK-MEL-5)	GI50 (HL-60)
C=C1C(=O)O[C@H]2[C@H]3O[C@@H](C[C@@H]12)[C@](C)(O)CCCC(C)=CCC[C@H]3C	5.13 µM (inactive)	5.18 µM (inactive)	7.26 µM (inactive)	54.3 µM (inactive)	1.34 µM (inactive)	5.97 µM (inactive)	10.5 µM (inactive)	3.9 µM (inactive)	16.1 µM (inactive)	11.5 µM (inactive)	0.457 µM (active)	10.2 µM (inactive)	3.24 µM (inactive)	3.38 µM (inactive)	10.8 µM (inactive)	16.5 µM (inactive)	1.67 µM (inactive)	14.5 µM (inactive)	10.8 µM (inactive)	
O=C1CCC2(c3ccc(Cl)cc3)Nc3ncncc3N12 (stereo not given)	> 10 µM (inactive)	> 10 µM (inactive)	> 10 µM (inactive)	> 10 µM (inactive)	> 10 µM (inactive)	> 10 µM (inactive)	> 10 µM (inactive)	> 10 µM (inactive)	> 10 µM (inactive)		> 10 µM (inactive)	> 10 µM (inactive)	> 10 µM (inactive)			> 10 µM (inactive)	> 10 µM (inactive)	> 10 µM (inactive)		
Cc1cccc2nc3c(=O)[nH]c(=O)nc-3n(C)c12	39.9 µM (inactive)	48.1 µM (inactive)	34.5 µM (inactive)	99.3 µM (inactive)		52 µM (inactive)	> 100 µM (inactive)	86.9 µM (inactive)	45.5 µM (inactive)	> 100 µM (inactive)	84.9 µM (inactive)	31.9 µM (inactive)	> 100 µM (inactive)	30.2 µM (inactive)	> 100 µM (inactive)	92.9 µM (inactive)	> 100 µM (inactive)	39.1 µM (inactive)	29.6 µM (inactive)	15.7 µM (inactive)
CC(C)OP(=O)(c1ccccc1)c1ccc2c(c1)OCCOCCOCCOCCO2 (stereo not given)	> 100 µM (inactive)	> 100 µM (inactive)	> 100 µM (inactive)	> 100 µM (inactive)		> 100 µM (inactive)	> 100 µM (inactive)	> 100 µM (inactive)		> 100 µM (inactive)	> 100 µM (inactive)	> 100 µM (inactive)	> 100 µM (inactive)	> 100 µM (inactive)		> 100 µM (inactive)	> 100 µM (inactive)	> 100 µM (inactive)	> 100 µM (inactive)	> 100 µM (inactive)
Nc1ccn(C2CC3OCC3O2)c(=O)n1 (stereo not given)	> 100 µM (inactive)	> 100 µM (inactive)	> 100 µM (inactive)	> 100 µM (inactive)		> 100 µM (inactive)	> 100 µM (inactive)	> 100 µM (inactive)	> 100 µM (inactive)	> 100 µM (inactive)	> 100 µM (inactive)	> 100 µM (inactive)	> 100 µM (inactive)	> 100 µM (inactive)	> 100 µM (inactive)	> 100 µM (inactive)	> 100 µM (inactive)	> 100 µM (inactive)	> 100 µM (inactive)	> 100 µM (inactive)
CSCC[C@H]1C(=O)N=C(N)N1C(=O)OCc1ccccc1	17.1 µM (inactive)	41 µM (inactive)	28.8 µM (inactive)	26.2 µM (inactive)		29 µM (inactive)	60.7 µM (inactive)	18 µM (inactive)	46.5 µM (inactive)	24.2 µM (inactive)	19.8 µM (inactive)	19.1 µM (inactive)	37.9 µM (inactive)	18.7 µM (inactive)	20 µM (inactive)	61.7 µM (inactive)	63.7 µM (inactive)	17.1 µM (inactive)	46.8 µM (inactive)	14.5 µM (inactive)
CCC(C)C(NC(=O)C1CCCN1C(=O)C(CC(C)C)NC(=O)C(CC(C)C)NC(=O)C(N)CC(C)C)C(=O)NC(C(=O)NCC(=O)NC(CC(N)=O)C(=O)NC(CC(C)C)C(=O)NC(CC(C)C)C(=O)NC(CC(C)C)C(N)=O)C(C)C (stereo not given) (H-LLLPIVGNLLL-NH2; configuration not given here)	> 50 µM (inactive)		> 50 µM (inactive)	> 50 µM (inactive)	> 50 µM (inactive)	> 50 µM (inactive)		> 50 µM (inactive)	> 50 µM (inactive)	> 50 µM (inactive)	> 50 µM (inactive)	> 50 µM (inactive)	> 50 µM (inactive)	> 50 µM (inactive)	> 50 µM (inactive)	> 50 µM (inactive)	> 50 µM (inactive)	> 50 µM (inactive)	> 50 µM (inactive)	> 50 µM (inactive)
O=C1/C(=C/c2ccc(Cl)cc2)Oc2cc(O)ccc21 [6-HYDROXY-4'-CHLORO AURONE]	44.6 µM (inactive)	25.1 µM (inactive)	34 µM (inactive)	33.3 µM (inactive)		31.9 µM (inactive)	31.6 µM (inactive)	14.7 µM (inactive)	47.5 µM (inactive)	59.6 µM (inactive)	26.8 µM (inactive)	34.2 µM (inactive)	30.5 µM (inactive)	> 100 µM (inactive)	> 10 µM (inactive)	38.4 µM (inactive)	33.4 µM (inactive)	36.2 µM (inactive)	23.4 µM (inactive)	18.1 µM (inactive)
